Test system: CGS 21680-induced catalepsy in mice
Assay: Activity on CGS 21680-induced Catalepsy
Type: in vivo, mouse (male ddY)
Conditions: 10 mg/kg oral; for Total score (catalepsy): 10 animals, maximum 50 points, control 48; for Number of Animals showing remission: catalepsy score 4 points or less in 10 cases; for inhibition in vivo at 10 mg/kg: Mus musculus, CGS 21680-induced catalepsy, read-out: Remission ratio (%)
Protocol: Activity on CGS 21680-induced Catalepsy
Parkinson's disease is motor deficit based on the degeneration and cell death of the nigrostriatal dopaminergic neuron. […] [Journal of Neuroscience, 16: 605 (1996)]. Accordingly, it is considered that adenosine A2A receptor agonists positively regulate the output of the striopallidal GABAergic neurons and, as a result, catalepsy is induced by the administration of CGS 21680.
This test was carried out using 10 animals per group of male ddY mice of 5 week age (22 to 25 g in body weight, Japan SLC). CGS 21680 (manufactured by RBI) was dissolved in a physiological saline (manufactured by Otsuka Pharmaceutical), and 10 μg/20 μl of the solution was injected into mouse intracerebro-ventricle. Test compounds were used by suspending them in distilled water containing 0.3% of polyoxyethylene(20)sorbitan monooleate (hereinafter referred to as "Tween 80") (manufactured by Otsuka Pharmaceutical). […] One hour after the administration of the test compound, only forelimbs or only hindlimbs of each animal were laid on a vertically arranged stand made of acryl, having a size of 4.5 cm in height and 1.0 cm in width, to measure catalepsy symptoms. All of the compounds were administered orally in a dose of 10 mg/kg.
The effect was judged by total catalepsy scores of 10 animals in one group (the maximum is 50 points). When the total score was 40 points or less, the activity of drugs was judged positive. The number of animals showing remission of catalepsy was expressed by the number of cases in which the catalepsy score was 4 points or less in 10 cases. The catalepsy remission ratio was expressed as the percentage of the total score in the test compound-administered group to the total score in the control group.

Compound | Total score (catalepsy) | Number of Animals showing remission | inhibition in vivo at 10 mg/kg [%]
CCC(C)N1CCN(c2cc3nc(-c4ccco4)nn3c(N)n2)CC1 (racemic) [Compound 140, (±)-5-Amino-2-(2-furyl)-7-(4-(1-methylpropyl)piperazinyl)[1,2,4]triazolo[1,5-c]pyrimidine] | 13 | 10 | 74
CCN1CCN(c2cc3nc(-c4ccco4)nn3c(N)n2)CC1 [Compound 60, 5-Amino-7-(4-ethylpiperazinyl)-2-(2-furyl)[1,2,4]triazolo[1,5-c]pyrimidine] | 10 | 8 | 76
Nc1nc(N2CCN(CCO)CC2)cc2nc(-c3ccco3)nn12 [Compound 62, 5-Amino-2-(2-furyl)-7-[4-(2-hydroxyethyl)piperazinyl][1,2,4]triazolo[1,5-c]pyrimidine] | 4 | 10 | 88
Nc1nc(N2CCN(c3ncccn3)CC2)cc2nc(-c3ccco3)nn12 [Compound 64, 5-Amino-2-(2-furyl)-7-[4-(2-pyrimidyl)piperazinyl][1,2,4]triazolo[1,5-c]pyrimidine] | 5 | 10 | 88
COCCN1CCN(c2cc3nc(-c4ccco4)nn3c(N)n2)CC1 [Compound 74, 5-Amino-7-[4-(2-methoxyethyl)piperazinyl]-2-(2-furyl)[1,2,4]triazolo[1,5-c]pyrimidine] | 0 | 10 | 98
Nc1nc(N2CCN(c3nc4ccccc4s3)CC2)cc2nc(-c3ccco3)nn12 [Compound 95, 5-Amino-7-(4-(2-benzothiazolyl)piperazinyl)-2-(2-furyl)[1,2,4]triazolo[1,5-c]pyrimidine] | 16 | 8 | 66
COCCOCCN1CCN(c2cc3nc(-c4ccco4)nn3c(N)n2)CC1 [Compound 104, 5-Amino-2-(2-furyl)-7-(4-(2-(2-methoxyethoxy)ethyl)piperazinyl)[1,2,4]triazolo[1,5-c]pyrimidine] | 4 | 10 | 92
C=CCCN1CCN(c2cc3nc(-c4ccco4)nn3c(N)n2)CC1 [Compound 125, 5-Amino-2-(2-furyl)-7-(4-homoallylpiperazinyl)[1,2,4]triazolo[1,5-c]pyrimidine] | 13 | 10 | 74
Nc1nc(N2CCN(CCCCF)CC2)cc2nc(-c3ccco3)nn12 [Compound 128, 5-Amino-7-(4-(4-fluorobutyl)piperazinyl)-2-(2-furyl)[1,2,4]triazolo[1,5-c]pyrimidine] | 9 | 10 | 80
CC(C)CN1CCN(c2cc3nc(-c4ccco4)nn3c(N)n2)CC1 [Compound 136, 5-Amino-2-(2-furyl)-7-(4-(2-methylpropyl)piperazinyl)[1,2,4]triazolo[1,5-c]pyrimidine] | 1 | 10 | 98
CC(C)N1CCN(c2cc3nc(-c4ccco4)nn3c(N)n2)CC1 [Compound 139, 5-Amino-2-(2-furyl)-7-(4-isopropylpiperazinyl)[1,2,4]triazolo[1,5-c]pyrimidine] | 10 | 9 | 80
Nc1nc(N2CCN(Cc3csnn3)CC2)cc2nc(-c3ccco3)nn12 [Compound 143, 5-Amino-2-(2-furyl)-7-(4-(1,2,3-thiadiazol-4-ylmethyl)piperazinyl)-2-(2-furyl)[1,2,4]triazolo[1,5-c]pyrimidine] | 0 | 10 | 98
Cc1ncc(CN2CCN(c3cc4nc(-c5ccco5)nn4c(N)n3)CC2)s1 [Compound 145, 5-Amino-2-(2-furyl)-7-(4-(2-methylthiazol-5-ylmethyl)piperazinyl)[1,2,4]triazolo[1,5-c]pyrimidine] | 3 | 10 | 92
Nc1nc(N2CCN(Cc3ccsc3)CC2)cc2nc(-c3ccco3)nn12 [Compound 146] | 3 | 10 | 94
Nc1ncc(C=O)c2nc(-c3ccco3)nn12 [Compound 163, 5-Amino-8-formyl-2-(2-furyl)[1,2,4]triazolo[1,5-c]pyrimidine] | 3 | 10 | 94
Nc1ncc(C(=O)N2CCCCC2)c2nc(-c3ccco3)nn12 [Compound 175] | 12 | 10 | 74
Nc1ncc(C(=O)N2CCOCC2)c2nc(-c3ccco3)nn12 [Compound 177] | 13 | 9 | 72
Nc1nc(SCc2ccncc2)cc2nc(-c3ccco3)nn12 [Compound 181, 5-Amino-2-(2-furyl)-7-(4-picolylthio)[1,2,4]triazolo[1,5-c]pyrimidine] | 14 | 8 | 72
COC(=O)c1ccc(CSc2cc3nc(-c4ccco4)nn3c(N)n2)cc1 [Compound 190, 5-Amino-2-(2-furyl)-7-(4-methoxycarbonylbenzylthio)[1,2,4]triazolo[1,5-c]pyrimidine] | 13 | 10 | 72
Nc1nc(SCc2ccccc2Cl)cc2nc(-c3ccco3)nn12 [Compound 200, 5-Amino-7-(2-chlorobenzylthio)-2-(2-furyl)[1,2,4]triazolo[1,5-c]pyrimidine] | 14 | 9 | 70
Nc1nc(SCc2ccccc2F)cc2nc(-c3ccco3)nn12 [Compound 201, 5-Amino-7-(2-fluorobenzylthio)-2-(2-furyl)[1,2,4]triazolo[1,5-c]pyrimidine] | 10 | 10 | 78
Nc1nc(SCc2ccccc2C=O)cc2nc(-c3ccco3)nn12 [Compound 213, 5-Amino-7-(2-formylbenzylthio)-2-(2-furyl)[1,2,4]triazolo[1,5-c]pyrimidine] | 15 | 10 | 70
Cc1c(N2CCN(CCO)CC2)nc(N)n2nc(-c3ccco3)nc12 [Compound 222, 5-Amino-2-(2-furyl)-7-(4-(2-hydroxyethyl)piperazinyl)-8-methyl[1,2,4]triazolo[1,5-c]pyrimidine] | 9 | 10 | 80
COCCN1CCN(c2nc(N)n3nc(-c4ccco4)nc3c2C)CC1 [Compound 223, 5-Amino-2-(2-furyl)-7-(4-(2-methoxyethyl)piperazinyl)-8-methyl[1,2,4]triazolo[1,5-c]pyrimidine] | 15 | 9 | 68

— patent US6222035A, “[1,2,4] triazolo [1,5-C] pyrimidine derivatives” (Kyowa Hakko Kogyo Co., Ltd., priority 1997, dated 2001)
